Results from patent US5422350A, “Nitrogen substituted acridine and cytochrome P450 inhibitors and methods of use” (priority 1992, dated 1995).
Where two headings read alike, the source gives them in different places.

Key:
[1] = Experimental: (§1) Total reaction volume was 3 mL. Reactions were stopped by freezing in liquid nitrogen or dry-ice acetone. […] D. J. Waxman and L. Axaroff, "Phenobarbital induction of cytochrome P-450 Gene Expression", BIOCHEM J, Vol. 281, pp. 577-592 (1992); P. Soucek and I. Gut, supra.
[2] = system: P4501A2; details: co-incubation with tacrine
Experimental: as §1

[3] = Single-dose pharmacokinetic and metabolic disposition study of [14C]tacrine HCl in human male volunteers; assay type: in vivo; details: for mean cumulative fecal recovery of 14C activity / mean cumulative urinary recovery of 14C activity / mean total recovery: 5760 min
Experimental: Plasma and red blood cells (RBC) were collected predose and for 48 hours postdose. Urine and feces were collected predose and for 96 hours postdose. Urine and plasma samples were analyzed directly by liquid scintillation spectrometry while RBC and fecal samples were solubilized prior to counting. […] Metabolic profiling of urine was performed by HPLC radioactivity detection. Metabolites were identified by HPLC/photodiode array/mass spectrometry.

[4] = Irreversible protein binding of 14C-tacrine-derived radioactivity, rat liver microsomes; details: 60 min
Experimental: as §1
(§2) C. N. Martin and R. C. Garner: "Covalent Binding In Vitro and In Vivo" in BIOCHEMICAL TOXICOLOGY: A PRACTICAL APPROACH, Eds. K. Snell and B. Mullock, IRL, Wash. D.C. pp. 109-126 (1987).

[5] = Irreversible protein binding of 14C-tacrine-derived radioactivity, human liver microsomes
Experimental: as §1, §2

[6] = biological target: T1, P450 1A2 (Homo sapiens, UniProt P05177); experiment: in vitro; details: human, microsomes
T1 sequence (P05177 2-516 limits assumed): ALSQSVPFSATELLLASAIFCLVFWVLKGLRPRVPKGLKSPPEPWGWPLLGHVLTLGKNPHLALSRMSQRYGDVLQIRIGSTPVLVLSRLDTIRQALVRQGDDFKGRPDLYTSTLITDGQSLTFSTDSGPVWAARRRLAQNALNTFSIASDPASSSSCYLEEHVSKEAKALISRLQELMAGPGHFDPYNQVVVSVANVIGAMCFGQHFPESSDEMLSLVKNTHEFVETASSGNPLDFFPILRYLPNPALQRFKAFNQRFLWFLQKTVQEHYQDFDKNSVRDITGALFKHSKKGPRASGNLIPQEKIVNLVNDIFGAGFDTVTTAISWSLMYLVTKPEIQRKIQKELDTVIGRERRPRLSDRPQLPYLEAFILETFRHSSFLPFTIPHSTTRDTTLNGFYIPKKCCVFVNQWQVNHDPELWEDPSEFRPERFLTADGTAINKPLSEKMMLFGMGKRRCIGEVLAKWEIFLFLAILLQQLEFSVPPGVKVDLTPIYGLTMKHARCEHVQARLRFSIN
Experimental: (§3) PHARMACOL., Vol. 42, pp. 767-772 (1990) was conducted. […] The effect of various enoxacin concentrations (8, 20, and 50 μM) on the extent of irreversible binding was examined in a separate study.

[7] = system: P450 1A2; experiment: in vitro
Experimental: as §3

[8] = In vitro metabolism of 14C-tacrine in rat liver microsomes; details: for TAC: w/out NADPH
Experimental: as §1

[9] = system: P450 2D6; experiment: Tacrine as substrate of P450 2D6: co-incubation with quinidine in human liver microsomes; assay type: in vitro ADME; details: for 1-Hydroxytacrine / Tacrine: quinidine -
Text: U. A. Meyer, J. Gut, T. Kronbach, C. Skoda, U. T. Meier, and T. Catin, "The Molecular Mechanisms of Two Common Polymorphisms of Drug Oxidation-Evidence for Functional Changes in Cytochrome P-450 Isozymes Catalysing Bufuralol and Mephenytoin Oxidation", XENOBIOTICA, Vol 16, pp 449-464 (1986). […] PHARMACOL., Vol 37, pp 155-160 (1989).

[10] = Human Prep (letter not given), w/NADPH, 60 min
[11] = I induced Rat, with NADPH, N = 3
[12] = MC induced Rat, with NADPH, N = 3
[13] = Noninduced Rat, with NADPH, N = 3
[14] = PB induced Rat, with NADPH, N = 3
[15] = MC induced Rat, w/NADPH, 60 min
[16] = Noninduced Rat, w/NADPH, 60 min
[17] = PB induced Rat, w/NADPH, 60 min

Cl.Nc1c2c(nc3ccccc13)CCCC2.O [Tacrine, 1,2,3,4-tetrahydro-9-acridinamine monohydrate monohydrochloride]
1-OH [1, 10]: 0.750 nmole equivalents
4-OH [1, 10]: 0.039 nmole equivalents
POLAR UNKS [1, 10]: 0.039 nmole equivalents
UNKS [1, 10]: 0.146 nmole equivalents
TAC ([1]; Human Prep (letter not given), w/out NADPH, 60 min): 1.34 nmole equivalents
1-OH ([1]; Human Prep C, w/NADPH, 60 min): 0.599 nmole equivalents
2-OH ([1]; Human Prep C, w/NADPH, 60 min): 0.095 nmole equivalents
POLAR UNKS ([1]; Human Prep C, w/NADPH, 60 min): 0.035 nmole equivalents
UNKS ([1]; Human Prep C, w/NADPH, 60 min): 0.139 nmole equivalents
TAC ([1]; Human Prep C, w/out NADPH, 60 min): 1.07 nmole equivalents
1-OH ([1]; Human Prep D, w/NADPH, 60 min): 0.201 nmole equivalents
TAC ([1]; Human Prep D, w/NADPH, 60 min): 0.803 nmole equivalents
TAC ([1]; Human Prep D, w/out NADPH, 60 min): 1.086 nmole equivalents
extent of metabolism ([1]; human liver preparation D): only partial tacrine turnover
major product detected ([1]; human liver preparations): 1-hydroxytacrine with minor amounts of the 2- and 4-hydroxytacrine regioisomers
extent of metabolism ([1]; human liver preparations B and C, within 60 min): completely metabolized
effect on 1-hydroxytacrine metabolism by P4501A2 [2]: inhibited
Mean AUC(O-tldc) for tacrine, 1-, 2-, and 4-hydroxytacrine as part of total mean plasma radioactivity AUC(O-tldc) ([3]; 10 mg oral): approximately 3%
Mean AUC(O-tldc) for tacrine, 1-, 2-, and 4-hydroxytacrine as part of total mean plasma radioactivity AUC(O-tldc) ([3]; 40 mg oral): ~4%
mean cumulative fecal recovery of 14C activity ([3]; 10-mg oral): 23.2 % of dose
mean cumulative urinary recovery of 14C activity ([3]; 10-mg oral): 56.5 % of dose
mean total recovery ([3]; 10-mg oral): 79.4%
mean plasma total radioactivity AUC(O-tldc), dose proportionality ([3]; 10 and 40 mg oral): increased in a dose proportional manner
mean AUC(O-tldc), dose proportionality ([3]; 10 and 40 mg oral, plasma): increased greater than dose proportionally
difference in metabolic profiles between dose levels ([3]; 10 vs 40 mg, urine): No apparent differences
mean cumulative fecal recovery of 14C activity ([3]; 40-mg oral): 20.8%
mean cumulative urinary recovery of 14C activity ([3]; 40-mg oral): 54.1%
mean total recovery ([3]; 40-mg oral): 74.9%
Tmax ([3]; human, plasma, po, read-out: Time to maximum plasma concentration (tmax)): ~2 h
polar radioactive components, of urinary radioactivity ([3]; urine through 24 hours): 67%
unchanged drug excreted in urine ([3]; urine through 24 hours): only trace amounts of unchanged drug excreted
Percent Bound [4, 11]: 4.62 ± 0.73%
Tacrine equivalents irreversibly bound to 1 mg microsomal protein [4, 11]: 0.042 ± 0.004 nmol
Tacrine equivalents irreversibly bound to 1 mg microsomal protein ([4]; I induced Rat, without NADPH): 0.003 nmol
Percent Bound [4, 12]: 14.5 ± 0.37%
Tacrine equivalents irreversibly bound to 1 mg microsomal protein [4, 12]: 0.139 ± 0.010 nmol
Tacrine equivalents irreversibly bound to 1 mg microsomal protein ([4]; MC induced Rat, without NADPH): 0.003 nmol
Percent Bound [4, 13]: 5.97 ± 0.68%
Tacrine equivalents irreversibly bound to 1 mg microsomal protein [4, 13]: 0.041 ± 0.001 nmol
Tacrine equivalents irreversibly bound to 1 mg microsomal protein ([4]; Noninduced Rat, without NADPH): 0.003 nmol
Percent Bound [4, 14]: 4.49 ± 0.85%
Tacrine equivalents irreversibly bound to 1 mg microsomal protein [4, 14]: 0.034 ± 0.006 nmol
Tacrine equivalents irreversibly bound to 1 mg microsomal protein ([4]; PB induced Rat, without NADPH): 0.002 nmol
Tacrine equivalents irreversibly bound to 1 mg microsomal protein ([4]; Table 3, MC induced Rat, NADPH, N = 3): 0.139 ± 0.010 nmol
detection of a hydroxylamine metabolite [5]: unsuccessful
irreversible binding of 14C-tacrine-derived radioactivity to microsomal protein [5]: no detectable
rate and products of metabolism [5]: rapidly metabolized not only to 1-hydroxytacrine but also to 7-hydroxytacrine
Km [6]: < 5 µM
irreversible binding of derived radioactivity to microsomal protein ([7]; Table 6, deletion of NADPH): no irreversible
Tacrine equivalents irreversibly bound to 1 mg microsomal protein ([7]; Table 6, tacrine 0.3 μM, enoxacin 0.0, 20 min, N = 3, SD): 0.040
Tacrine equivalents irreversibly bound to 1 mg microsomal protein ([7]; tacrine 0.5 μM alone, 5 min, N = 3, SD): 0.022 ± 0.005 nmol
Tacrine equivalents irreversibly bound to 1 mg microsomal protein ([7]; tacrine 0.5 μM alone, 10 min): 0.048 ± 0.006 nmol
Tacrine equivalents irreversibly bound to 1 mg microsomal protein ([7]; tacrine 0.5 μM alone, 20 min): 0.096 ± 0.006 nmol
Tacrine equivalents irreversibly bound to 1 mg microsomal protein ([7]; tacrine 0.5 μM alone, 45 min): 0.148 ± 0.024 nmol
1-OH ([8]; I induced Rat, w/NADPH, 60 min): 1.57 nmole equivalents
POLAR UNKS ([8]; I induced Rat, w/NADPH, 60 min): 0.083 nmole equivalents
TAC ([8]; I induced Rat, 60 min): 1.14 nmole equivalents
1-OH [8, 15]: 0.790 nmole equivalents
4-OH [8, 15]: 0.018 nmole equivalents
POLAR UNKS [8, 15]: 0.009 nmole equivalents
UNKS [8, 15]: 0.091 nmole equivalents
TAC ([8]; MC induced Rat, 60 min): 1.16 nmole equivalents
1-OH [8, 16]: 0.994 nmole equivalents
2-OH [8, 16]: 0.088 nmole equivalents
POLAR UNKS [8, 16]: 0.022 nmole equivalents
TAC ([8]; Noninduced Rat, 60 min): 1.22 nmole equivalents
1-OH [8, 17]: 1.15 nmole equivalents
2-OH [8, 17]: 0.144 nmole equivalents
POLAR UNKS [8, 17]: 0.026 nmole equivalents
TAC ([8]; PB induced Rat, 60 min): 1.20 nmole equivalents
1-hydroxytacrine produced ([8]; rat vs human preparations): more 1-hydroxytacrine produced as compared to human preparations
catalysis by P450 2D6 of metabolism and irreversible binding [9]: not catalyzed by P450 2D6
1-Hydroxytacrine ([9]; 0 min): 0 nMoles per 3 mL incubate
Tacrine ([9]; 0 min): 2.13 nMoles per 3 mL incubate
metabolites observed ([9]; 7-hydroxytacrine at incubation times through 40 min): mainly 1-hydroxytacrine with 7-hydroxytacrine also being observed
1-Hydroxytacrine ([9]; 5 min): 0.416 nMoles per 3 mL incubate
Tacrine ([9]; 5 min): 1.24 nMoles per 3 mL incubate
1-Hydroxytacrine ([9]; 10 min): 0.716 nMoles per 3 mL incubate
Tacrine ([9]; 10 min): 0.831 nMoles per 3 mL incubate
1-Hydroxytacrine ([9]; 20 min): 1.03 nMoles per 3 mL incubate
Tacrine ([9]; 20 min): 0.302 nMoles per 3 mL incubate
1-Hydroxytacrine ([9]; 40 min): 1.34 nMoles per 3 mL incubate
Tacrine ([9]; 40 min): 0 nMoles per 3 mL incubate
1-Hydroxytacrine ([9]; 60 min): 1.43 nMoles per 3 mL incubate
Tacrine ([9]; 60 min): 0 nMoles per 3 mL incubate
